Assay results published in patent US20070049538A1, “METHODS FOR USING CUCURBITACIN COMPOUNDS” (SOUTH DAKOTA STATE UNIVERSITY, priority 2005, published 2007).

Key:
HepG2 cells [1] = assay: Cucurbitacins cytotoxicity on HepG2 cells (MTT viability assay); format: cell-based, human
Method: HepG2 (human hepatocellular carcinoma, ATCC) cells were grown in EMEM (Gibco, Grand Island, N.Y.) supplemented with 10% fetal bovine serum (FBS), and 1% penicillin/fungizone mixture (Gibco). Thabrew's optimized procedure (Thabrew et al., J. Pharm. Pharmcol. 49 (1994) 1442, the entire disclosure of which is herein incorporated by reference) was followed. Cells were batch cultured for 10 days, then seeded at concentration of 30,000 cells/well in fresh media in 96-well microtiter plastic plates at 37° C. for a day. Then cells were exposed to different concentrations of cucurbitacins at final volume of 100 μl/well. Five-fold serial dilution of compounds was carried out in the plate for five consecutive wells. After 24 h of incubation with chemicals, live cells were visualized using the MTT viability assay (Promega, Madison, Wis.). The absorbance was measured at 570 nm. Negative (without cells) and positive (without test chemicals) controls were also incubated with each plate. […] At least three reproducible experiments were performed per compound with three replicate wells per concentration.
Cells were challenged with cu-curbitacins at various concentrations for a day and then live cells quantified with MTT dye. This period of time measures exclusively compounds cytotoxicity, while longer incubation time may lead to interference from metabolites.

[2] = Chromatographic hydrophobicity index (CHI) by RP-HPLC in buffered acetonitrile; format: physicochemical; design: key: CHI = φ0 (isocratic hydrophobicity index), = A·tR + B; ACN % scale; settings: for CHIACN1: buffered acetonitrile pH 7.0, Alltima C18 250 mm, Eq. (2) from isocratic φ0; for CHIACN2: buffered acetonitrile pH 7.0, Eq. (3) calibrated against published CHI
Method: (§1) We used Dynamax liquid chromatograph (Varian Chromatography Systems) with PDA-2 photodiode array UV detector, controlled by the Dynamax PC Chromatography Data System (v. 1.9) software and Dynamax dual pump solvent delivery system, model SD-200. […] Cucurbitacins analytical separation was optimized on Alltima C18 (Alltech; 250 mm×4.6 mm, 5 μm) HPLC column, at gradient elution in acetonitrile (ACN, 30-70% ACN in 57 min), and in MeOH (60-75% MeOH in 50 min). Cucurbitacins stock concentration of 10^−2M in DMSO:ethanol (1:1) was standardized against pure cucurbitacin I (Indofine Chemical Company, Hillsborough, N.J.) by analytical HPLC means. Compounds CHI was measured in both ACN, by using Alltima C18 column, and in MeOH, by using Econosil C18 column (Alltech; 150 mm×4.6 mm, 5 μm). Analytical separations were conducted at a flow rate of 1 ml/min. The aqueous phase was buffered for the CHI measurement. For this purpose, solid ammonium acetate (Fisher Sci. Co., Fair Lawn, N.J.) was dissolved in deionized distilled water at 50 mM final concentration and its pH adjusted to 7.0.
All standard compounds were purchased from Acros (Acros Organics, NJ). The chromatographic lipophilicity or hydrophobicity was determined applying Valkó's technique (Valkó et al., Anal. Chem. 69 (1997) 2022, the entire disclosure of which is herein incorporated by reference). A standard mixture of seven compounds was prepared in solution: theophylline (compound 19), benzimidazole (compound 20), acetophenone (compound 21), indole (compound 22), propiophenone (compound 23), butyrophenone (compound 24), and valerophenone (compound 25). […] The retention factor, log k=log((tR-t0)/t0), was calculated for each analyte from five good injections of […] sample. The dead time (t0) was measured by injecting NaNO3 together with the sample. Then, the log k values were plotted against isocratic ACN concentrations to establish the linear regression equations for each analyte. From each straight line the isocratic hydrophobicity index was computed, φ0=(intercept/slope). Further, the calibration mixture was injected at fast gradient elution, 0-22 min 0-100% ACN, and three additional minutes at 100% ACN. The φ0 values for the test compounds were plotted against gradient retention time and the linear equation determined from the following equation: φ0=CHI=AtR+B (1)
The gradient elution conditions were similar to the one from the first approach.
(§2) Cucurbitacins lipophilicity was measured by RP-HPLC. […] Due to its high viscosity, aqueous MeOH required a shorter column than the one applied for ACN. First, the C18 columns were calibrated against a standard mixture, and the relationships established between the fast gradient tR and φ0 or published CHI (see Eqs. (2)-(4) from Table 2). Second, cucurbitacins were injected at fast gradient elution under similar conditions, and their CHI calculated (Table 4) from Eqs. (2)-(4). Eqs.

[3] = Chromatographic hydrophobicity index (CHI) by RP-HPLC in buffered methanol; format: physicochemical; settings: for CHIMeOH: buffered methanol pH 7.0, Econosil C18 150 mm, Eq. (4)
Method: as §1
A standard mixture of 10 compounds including 19-21, 23-27, aniline (compound 28) and bromobenzene (compound 29), dissolved in MeOH, was injected at five isochratic elution, at 40, 45, 50, 55, and 60% MeOH. Then the mixture was injected at fast gradient elution to establish the correlation from Eq. (1). The fast linear gradient elution was optimized for 30-100% MeOH in aqueous buffer with 10 min runtime.
as §2

HSC-T6 cells [4] = assay: Serum-driven HSC-T6 proliferation, experiment 1 (4 h challenge, two days drug-free growth); format: cell-based, rat; settings: for EC50: HSC-T6, 4 h challenge, then two days drug-free media
Method: The proliferation effect of serum on HSC-T6 cells was optimized and cucurbitacin antiproliferative activity was measured. Serum contains a large number of growth factors, hormones and other nutrients, which help cells to grow and multiply. Several trials were conducted. In experiment 1, cells were challenged with cucurbitacin analogs for 4 h and then cells were grown in drug-free media for two additional days.
HSC-T6 cells were photographed under phase-contrast microscope to record possible changes in cell morphology during experiment 1. […] We are monitoring specifically the effect of compound on the cells, cell recovery after 4 h challenge, and relative cell proliferation. […] Live cells are quantified at the end of the assay (row 4) with MTT dye.
(§3) We established several experimental conditions such as 4 hours of incubation time with cucurbitacin, and 2 day cell incubation with fresh media after challenging with cucurbitacin (Exp. 1). Other experiments involved addition of cucurbitacin for 24 hours over starved cells (Exp. 2) vs. proliferating cells (Exp. 3), and one day incubation of cells with fresh media after challenge. […] Because of that, the challenge time was increased to 24 hours (Exp. 2 and 3).
We modified this approach. Our assay included a second control (ZC) supplemented with no serum intended to measure cucurbitacin anti-proliferation effect relative to the number of cells generated during challenge instead of the total number of cells present in each well.

HSC-T6 cells [5] = assay: Cytotoxicity on HSC-T6 cells (experiment 3); format: cell-based, rat; settings: read-out: Experiment 3 IC50 (T)
From the text: Cytotoxicity of all cucurbitacin analogs was additionally measured in experiment 3 (Table 8).

HSC-T6 cells [6] = assay: Serum-driven HSC-T6 proliferation, experiment 3 (24 h, proliferating cells); format: cell-based, rat; settings: HSC-T6, 24 h, proliferating cells; read-out: Experiment 3 EC50 (A)
Method: To overcome this problem, the amount of incubation time was increased to 24 h, and cucurbitacin activity measured on starved (Exp. 2) or proliferative (Exp. 3) cells (Table 8). Cells turned quiescent when serum was not supplemented for one day (Exp. 2). Activity of a few compounds was monitored on quiescent cells, and their activity compared to the ones measured on proliferating cells (Exp. 3).
as §3, with “challenge. The 4 hour incubation period with cucurbitacin triggered anti-proliferation effect. This effect, however, was hindered by a second cycle of cell proliferation during the two-day cell growth period (see silybin, E and I glucosides, and for I-nPr).” for “challenge.”
In experiment 3, only 40% of the cells divided. The ratio of EC50 values for exp. 2 and exp. 3 varied between 3.6 and 12.7. This may indicate differential cytotoxicity of silybin and cucurbitacin analogs over quiescent and active stellate cells. In other words, compounds show higher anti-proliferative activity on active cells than on quiescent cells.

HepG2 cells [7] = assay: cells; settings: for EC50: read-out: EC50 cytoprotection, Table 7, HepG2 against CCl4 toxicity, estimated
From the text: Experimental conditions were standardized on silybin. […]
The ratio of IC50-to-EC50 (hereafter T/A) is also indicated in this table, which gives the margin between toxic and cytoprotective concentrations.

| SMILES | IC50 (HepG2 cells [1]; Table 4, 24 h incubation, MTT) [µM] | IC50 (HepG2 cells [1]; Table 5) [µM] | CHIACN1 [2] | CHIACN2 [2] | CHIMeOH [3] | Experiment 1 anti-proliferation activity (HSC-T6 cells [4]; measured at 2-6 μM) | IC50 (HSC-T6 cells [5]) [µM] | EC50 (HSC-T6 cells [6]) [µM] | EC50 (HSC-T6 cells [4]) [µM] | CHIMeOH (b) ([3]; standard compounds, isochratic and gradient elution of standard mixture) | IC50 (HepG2 cells [1]; Table 7) [µM] | EC50 (HepG2 cells [7]) [µM] | Experiment 1 anti-proliferation activity (HSC-T6 cells [4]; measured at 100 μM) | cytoprotection on HepG2 cells (HepG2 cells [7]; at 6.25% of IC50, against CCl4) | cytoprotection on HepG2 cells (HepG2 cells [7]; at 12.5% of IC50, against CCl4) | cytoprotection on HepG2 cells (HepG2 cells [7]; at 20% of IC50, against CCl4) | cytoprotection on HepG2 cells (HepG2 cells [7]; at 50% of IC50, against CCl4) |
| --- | --- | --- | --- | --- | --- | --- | --- | --- | --- | --- | --- | --- | --- | --- | --- | --- | --- |
| CCCOC1=CC2C(=CCC3C2(C)C(=O)CC2(C)C(C(C)(O)C(=O)C=CC(C)(C)O)C(O)CC32C)C(C)(C)C1=O (stereo not shown) [I-nPr] | 5 | 5 ± 0.5 | 75.92 | 83.13 | 72.88 | ˜18%^b^ | 2.5 | 0.33 |  |  |  |  |  |  |  |  |  |
| CCCOC1=CC2C(=CCC3C2(C)C(=O)CC2(C)C(C(C)(O)C(=O)C=CC(C)(C)OC(C)=O)C(O)CC32C)C(C)(C)C1=O (stereo not shown) [E-nPr] |  |  | 88.34 | 102.37 | 77.66 |  | 2.8 | 0.34 | 2.28 |  |  |  |  |  |  |  |  |
| Nc1ccccc1 [Aniline (28), aniline, reference compound] |  |  |  |  |  |  |  |  |  | 29.94 ± 0.05 |  |  |  |  |  |  |  |
| CC(C)(O)/C=C/C(=O)C(C)(O)C1C(O)CC2(C)C3CC=C4C(CC(=O)C(O)C4(C)C)C3(C)C(=O)CC12C (stereo not shown) [iso-D] | 80.3 | 80.3 ± 3.5 | 60.59 | 59.37 | 62.27 |  | 8.7 | 0.06 | 2.13 |  | 80.3 | 13.8 |  |  |  |  |  |
| CC(C)(O)/C=C/C(=O)[C@](C)(O)C1[C@H](O)C[C@@]2(C)C3CC=C4C(C=C(O[C@@H]5O[C@H](CO)[C@@H](O)[C@H](O)[C@H]5O)C(=O)C4(C)C)[C@]3(C)C(=O)C[C@]12C (stereo partly shown) [I-Gluc, cucurbitacin I glucoside] | 390 ± 10 | 390 ± 10 | 46.48 | 37.50 | 56.41 |  | 256 | 4.15 |  |  |  |  | ˜20%^a^ |  |  |  |  |
| CCOC1=CC2C(=CCC3C2(C)C(=O)CC2(C)C(C(C)(O)C(=O)C=CC(C)(C)OC(C)=O)C(O)CC32C)C(C)(C)C1=O (stereo not shown) [E-Et] | 5.1 | 5.1 ± 0.9 | 82.76 | 93.73 | 74.25 |  | 3.5 | 0.27 | 5.6 |  |  |  |  |  |  |  |  |
| CC(C)OC1=CC2C(=CCC3C2(C)C(=O)CC2(C)C(C(C)(O)C(=O)C=CC(C)(C)O)C(O)CC32C)C(C)(C)C1=O (stereo not shown) [I-iPr] | 7 ± 1 | 7.3 ± 0.6 | 73.87 | 79.94 | 71.55 |  | 2.5 | 0.25 | 3.85 |  |  |  |  | −17.10 ± 1.54 | 4.15 ± 0.48 | 18.69 ± 0.13 | 41.73 ± 2.06 |
| CC(C)(O)/C=C/C(=O)[C@](C)(O)[C@H]1[C@H](O)C[C@@]2(C)[C@@H]3CC=C4[C@@H](C=C(O)C(=O)C4(C)C)[C@]3(C)C(=O)C[C@]12C [I, cucurbitacin I] | 15.8 | 15.8 ± 6.7 | 63.27 | 63.53 | 63.86 |  | 3.6 | 0.02 | 0.36 |  | 15.8 | 3.2 |  | 4.55 ± 0.64 | 17.50 ± 1.32 | 50.09 ± 1.02 | 54.75 ± 0.29 |
